Source: patent US8030478B2, “Method for nucleic acid replication and novel artificial base pairs” (priority 2005, dated 2011)
Read-outs that look alike come from different tables or passages of the source.

Target: T1, Klenow fragment lacking exonuclease activity (KF exo−) (Escherichia coli, UniProt P00582, D355A/E357A)
T1 construct: enzyme solution of the Klenow fragment lacking exonuclease activity (KF exo^−, Amersham USB); purchased Amersham USB
Assay type: biochemical, E. coli
Conditions: for Efficiency (Vmax/KM) / Km / Vmax: temp35N-1, 37° C.; for inserted products (KM, Vmax n.d.): temp35N-2, 20 minutes, 1500 μM nucleoside 5′-triphosphate, 50 nM enzyme
Method: The single nucleotide insertion experiment was performed as described in documents (Non-patent Documents 30-32). A primer (20-mer) labeled with 6-carboxylfluorescein at the 5′-end was annealed with template DNA (35-mer) by heating at 95° C. and slow cooling to 4° C. in 100 mM Tris-HCl (pH 7.5) buffer containing 20 mM MgCl2, 2 mM DTT and 0.1 mg/ml bovine serum albumin. The primer-template duplex solution (10 μM, 5 μl) was mixed with 2 μl enzyme solution of the Klenow fragment lacking exonuclease activity (KF exo^−, Amersham USB). After the mixture was incubated for 2 minutes, each dNTP solution (3 μl) was added to this solution to start the reaction at 37° C. The amount of the enzyme used (5-50 nM), the reaction time (1-35 minutes) and the gradient concentration of each dNTP (0.3-1500 μM) were adjusted to ensure conditions giving 25% or less products. The reaction was stopped with 10 μl stop solution (95% formamide and 20 mM EDTA), and the mixture was immediately heated at 75° C. for 3 minutes. The diluted products were analyzed in an automated ABI377 DNA sequencer equipped with GeneScan software (version 3.0) (Non-patent Document 32). The relative velocity (v0) was calculated by dividing the extent of reaction by the reaction time, and then normalized to the enzyme concentration (20 nM) for the various enzyme concentrations used. Kinetic parameters (KM and Vmax) were obtained from Hanes-Woolf plots of [dNTP]/v0 against [dNTP].
Each parameter was averaged from 3 to 8 data sets.

T1 sequence (P00582 324-928 D355A/E357A): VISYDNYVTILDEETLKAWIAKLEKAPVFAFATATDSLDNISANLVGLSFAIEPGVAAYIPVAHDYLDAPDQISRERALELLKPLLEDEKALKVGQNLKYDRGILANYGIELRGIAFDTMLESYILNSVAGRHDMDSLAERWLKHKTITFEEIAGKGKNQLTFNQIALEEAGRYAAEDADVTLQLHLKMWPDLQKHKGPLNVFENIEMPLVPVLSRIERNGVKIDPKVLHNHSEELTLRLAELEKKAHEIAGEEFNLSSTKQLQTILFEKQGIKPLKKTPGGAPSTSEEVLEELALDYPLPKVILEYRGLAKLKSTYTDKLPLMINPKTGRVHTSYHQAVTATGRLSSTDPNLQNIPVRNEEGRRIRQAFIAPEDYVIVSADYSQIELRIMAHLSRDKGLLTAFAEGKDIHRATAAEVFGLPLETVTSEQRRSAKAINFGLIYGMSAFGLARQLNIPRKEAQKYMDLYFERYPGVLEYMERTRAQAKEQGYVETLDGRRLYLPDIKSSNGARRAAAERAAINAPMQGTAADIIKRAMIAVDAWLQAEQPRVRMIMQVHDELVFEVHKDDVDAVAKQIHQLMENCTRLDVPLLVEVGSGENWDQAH

Nc1ccn([C@H]2C[C@H](O)[C@@H](COP(=O)(O)OP(=O)(O)OP(=O)(O)O)O2)c(=O)n1 [dCTP, reference compound]
Efficiency (Vmax/KM) (template (N) = A): 1.8 × 10^3 % min^−1M^−1
Km (template (N) = A): 1200 µM
Vmax (template (N) = A): 2.2 % min^−1
Efficiency (Vmax/KM) (template (N) = Ds): 8.3 × 10^2 % min^−1M^−1
Km (template (N) = Ds): 410 µM
Vmax (template (N) = Ds): 0.34 % min^−1
Efficiency (Vmax/KM) (template (N) = G): 2.3 × 10^7 % min^−1M^−1
Km (template (N) = G): 0.24 µM
Vmax (template (N) = G): 5.5 % min^−1
inserted products (KM, Vmax n.d.) (template (N) = Pa): n.d.^c (Minimal inserted products (<2%) were detected after incubation for 20 minutes with 1500 μM nucleoside 5′-triphosphate and 50 nM enzyme.)
inserted products (KM, Vmax n.d.) (template (N) = Pa′): n.d. (Minimal inserted products (<2%) were detected after incubation for 20 minutes with 1500 μM nucleoside 5′-triphosphate and 50 nM enzyme.)
